Assay results as given in article PMC10246881 (2023).

Columns and labels:
[1] = test system: dsOligo 1 (CGCGAATTCGCG) (DNA, duplex) CGCGAATTCGCG; experiment: X-ray crystallography (2.2 Å); conditions: minor groove at AATT; mixed 1:1, 4% DMSO; crystals at 14 °C
[2] = test system: (poly[dG-dC])2 (DNA, polymer) GC; experiment: intrinsic fluorescence titration; conditions: 100 mM NaCl; 50 mM Tris-HCl, 0.1 mM EDTA, pH 7.4; 2 μM ridinilazole, polymer titrated
[3] = test system: poly(dA)·poly(dT) (DNA, polymer) A/T; experiment: intrinsic fluorescence titration; conditions: 100 mM NaCl; 50 mM Tris-HCl, 0.1 mM EDTA, pH 7.4; 2 μM ridinilazole, polymer titrated
[4] = test system: (poly[dA-dT])2 (DNA, polymer) AT; experiment: intrinsic fluorescence titration; conditions: 100 mM NaCl; 50 mM Tris-HCl, 0.1 mM EDTA, pH 7.4; 2 μM ridinilazole, polymer titrated
[5] = test system: dsOligo 1 (CGCGAATTCGCG) (DNA, duplex) CGCGAATTCGCG; experiment: intrinsic fluorescence titration, tight-binding linear fit; conditions: 100 mM NaCl; 50 mM Tris-HCl, 0.1 mM EDTA, pH 7.4; oligo titrated into fixed ridinilazole
[6] = test system: dsOligo 2 (CGCAAATTTGCG) (DNA, duplex) CGCAAATTTGCG; experiment: as above; conditions: 100 mM NaCl; 50 mM Tris-HCl, 0.1 mM EDTA, pH 7.4; oligo titrated into fixed ridinilazole

For `c1cc(-c2nc3cc(-c4ccc5nc(-c6ccncc6)[nH]c5c4)ccc3[nH]2)ccn1`, the binding [1] was “yes”, the binding [2] was “no” and the binding [3] was “yes”. The binding [4] was “yes”, the Kd [5] was 21.6 nM and the Kd [6] was 21.3 nM.
